Measured values from the supplement of paper PMC10307832.

Assays:
Test in all cases: relative viability (nuclei count vs DMSO), 5 days (fraction); higher = more cells survive
LXF-289 = tested on: LXF-289
How it was run: (§1)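 Lung cancer cell lines, seeded in 1536-well plates, were treated the following day by pin tool with a single drug or with five library-drug doses (not always all listed) in √10 steps on top of a fixed anchor-drug dose. Cells were fixed and nuclei stained in one step after 5 days, and nuclei were counted. Relative viability is the nuclei count for treated wells divided by that for vehicle wells, reported as medians of duplicate plates.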

LCLC-103H = tested on: LCLC-103H
How it was run: as §1

NCI-H1650 = tested on: NCI-H1650
How it was run: as §1

SK-LU-1 = tested on: SK-LU-1
How it was run: as §1

NCI-H1437 = tested on: NCI-H1437
How it was run: as §1

HCC-827 = tested on: HCC-827
How it was run: as §1

LCLC-97TM1 = tested on: LCLC-97TM1
How it was run: as §1

NCI-H3122 = tested on: NCI-H3122
How it was run: as §1

NCI-H647 = tested on: NCI-H647
How it was run: as §1

NCI-H2405 = tested on: NCI-H2405
How it was run: as §1

NCI-H2087 = tested on: NCI-H2087
How it was run: as §1

NCI-H1793 = tested on: NCI-H1793
How it was run: as §1

NCI-H2228 = tested on: NCI-H2228
How it was run: as §1

NCI-H322M = tested on: NCI-H322M
How it was run: as §1

NCI-H1944 = tested on: NCI-H1944
How it was run: as §1

NCI-H1792 = tested on: NCI-H1792
How it was run: as §1

NCI-H1395 = tested on: NCI-H1395
How it was run: as §1

201T = tested on: 201T
How it was run: as §1

RERF-LC-KJ = tested on: RERF-LC-KJ
How it was run: as §1

BEN = tested on: BEN
How it was run: as §1

CAL-12T = tested on: CAL-12T
How it was run: as §1

`CC(=O)O[C@@]12CO[C@@H]1C[C@H](O)[C@@]1(C)C(=O)[C@H](O)C3=C(C)[C@@H](OC(=O)[C@H](O)[C@@H](NC(=O)OC(C)(C)C)c4ccccc4)C[C@@](O)([C@@H](OC(=O)c4ccccc4)[C@H]21)C3(C)C` [Docetaxel] + Nc1nc2[nH]cc(CCc3ccc(C(=O)N[C@@H](CCC(=O)O)C(=O)O)cc3)c2c(=O)[nH]1 [Pemetrexed] (partner 0.2 µM) showed a relative viability (LXF-289; first compound 0.0002 µM) of 0.875, a relative viability (LXF-289; first compound 0.000632 µM) of 0.8 and a relative viability (LXF-289; first compound 0.002 µM) of 0.363. The relative viability (LXF-289; first compound 0.006325 µM) was 0.116, the relative viability (LXF-289; first compound 0.02 µM) was 0.0871 and the relative viability (LCLC-103H; first compound 0.0002 µM) was 0.495. The relative viability (LCLC-103H; first compound 0.000632 µM) was 0.54, the relative viability (LCLC-103H; first compound 0.002 µM) was 0.515 and the relative viability (LCLC-103H; first compound 0.006325 µM) was 0.6. The relative viability (LCLC-103H; first compound 0.02 µM) was 0.492, the relative viability (NCI-H1650; first compound 0.0002 µM) was 0.387 and the relative viability (NCI-H1650; first compound 0.000632 µM) was 0.412. It also gave a relative viability (NCI-H1650; first compound 0.002 µM) of 0.28, a relative viability (NCI-H1650; first compound 0.006325 µM) of 0.263 and a relative viability (NCI-H1650; first compound 0.02 µM) of 0.158. The relative viability (SK-LU-1; first compound 0.0002 µM) was 0.947, the relative viability (SK-LU-1; first compound 0.000632 µM) was 0.725 and the relative viability (SK-LU-1; first compound 0.002 µM) was 0.535. The relative viability (SK-LU-1; first compound 0.006325 µM) was 0.337, the relative viability (SK-LU-1; first compound 0.02 µM) was 0.258 and the relative viability (NCI-H1437; first compound 0.0002 µM) was 0.3. For the same compound, the relative viability (NCI-H1437; first compound 0.000632 µM) was 0.361, the relative viability (NCI-H1437; first compound 0.002 µM) was 0.32 and the relative viability (NCI-H1437; first compound 0.006325 µM) was 0.288. For the same compound, the relative viability (NCI-H1437; first compound 0.02 µM) was 0.213, the relative viability (HCC-827; first compound 0.0002 µM) was 0.183 and the relative viability (HCC-827; first compound 0.000632 µM) was 0.282. For the same compound, the relative viability (HCC-827; first compound 0.006325 µM) was 0.238, the relative viability (HCC-827; first compound 0.02 µM) was 0.215 and the relative viability (LCLC-97TM1; first compound 0.0002 µM) was 0.167. The relative viability (LCLC-97TM1; first compound 0.000632 µM) was 0.161, the relative viability (LCLC-97TM1; first compound 0.002 µM) was 0.129 and the relative viability (LCLC-97TM1; first compound 0.006325 µM) was 0.109. The relative viability (LCLC-97TM1; first compound 0.02 µM) was 0.0702, the relative viability (NCI-H3122; first compound 0.0002 µM) was 0.185 and the relative viability (NCI-H3122; first compound 0.000632 µM) was 0.196. For the same compound, the relative viability (NCI-H3122; first compound 0.002 µM) was 0.193, the relative viability (NCI-H3122; first compound 0.006325 µM) was 0.14 and the relative viability (NCI-H3122; first compound 0.02 µM) was 0.111. For the same compound, the relative viability (NCI-H647; first compound 0.0002 µM) was 0.175, the relative viability (NCI-H647; first compound 0.000632 µM) was 0.142 and the relative viability (NCI-H647; first compound 0.002 µM) was 0.103. The relative viability (NCI-H647; first compound 0.006325 µM) was 0.122, the relative viability (NCI-H647; first compound 0.02 µM) was 0.0856 and the relative viability (NCI-H2405; first compound 0.0002 µM) was 1.01. The relative viability (NCI-H2405; first compound 0.000632 µM) was 0.754, the relative viability (NCI-H2405; first compound 0.002 µM) was 0.671 and the relative viability (NCI-H2405; first compound 0.006325 µM) was 0.405. For the same compound, the relative viability (NCI-H2405; first compound 0.02 µM) was 0.389, the relative viability (NCI-H2087; first compound 0.0002 µM) was 0.553 and the relative viability (NCI-H2087; first compound 0.000632 µM) was 0.509. For the same compound, the relative viability (NCI-H2087; first compound 0.002 µM) was 0.24, the relative viability (NCI-H2087; first compound 0.006325 µM) was 0.168 and the relative viability (NCI-H2087; first compound 0.02 µM) was 0.104. For the same compound, the relative viability (NCI-H1793; first compound 0.0002 µM) was 0.842, the relative viability (NCI-H1793; first compound 0.000632 µM) was 0.603 and the relative viability (NCI-H1793; first compound 0.002 µM) was 0.251. It also gave a relative viability (NCI-H1793; first compound 0.006325 µM) of 0.271, a relative viability (NCI-H1793; first compound 0.02 µM) of 0.188 and a relative viability (NCI-H2228; first compound 0.0002 µM) of 0.319. The relative viability (NCI-H2228; first compound 0.000632 µM) was 0.228, the relative viability (NCI-H2228; first compound 0.002 µM) was 0.154 and the relative viability (NCI-H2228; first compound 0.006325 µM) was 0.146. It also gave a relative viability (NCI-H2228; first compound 0.02 µM) of 0.11, a relative viability (NCI-H322M; first compound 0.0002 µM) of 0.552 and a relative viability (NCI-H322M; first compound 0.000632 µM) of 0.602. For the same compound, the relative viability (NCI-H322M; first compound 0.002 µM) was 0.689, the relative viability (NCI-H322M; first compound 0.006325 µM) was 0.642 and the relative viability (NCI-H322M; first compound 0.02 µM) was 0.486. For the same compound, the relative viability (NCI-H1944; first compound 0.0002 µM) was 0.619, the relative viability (NCI-H1944; first compound 0.000632 µM) was 0.568 and the relative viability (NCI-H1944; first compound 0.002 µM) was 0.521. It also gave a relative viability (NCI-H1944; first compound 0.006325 µM) of 0.248, a relative viability (NCI-H1944; first compound 0.02 µM) of 0.118 and a relative viability (NCI-H1792; first compound 0.0002 µM) of 0.764. The relative viability (NCI-H1792; first compound 0.000632 µM) was 0.533, the relative viability (NCI-H1792; first compound 0.002 µM) was 0.223 and the relative viability (NCI-H1792; first compound 0.006325 µM) was 0.105. The relative viability (NCI-H1792; first compound 0.02 µM) was 0.0705, the relative viability (NCI-H1395; first compound 0.0002 µM) was 0.814 and the relative viability (NCI-H1395; first compound 0.000632 µM) was 0.706. It also gave a relative viability (NCI-H1395; first compound 0.002 µM) of 0.652, a relative viability (NCI-H1395; first compound 0.006325 µM) of 0.342 and a relative viability (NCI-H1395; first compound 0.02 µM) of 0.246. The relative viability (201T; first compound 0.0002 µM) was 0.36, the relative viability (201T; first compound 0.000632 µM) was 0.32 and the relative viability (201T; first compound 0.002 µM) was 0.312. For the same compound, the relative viability (201T; first compound 0.006325 µM) was 0.424, the relative viability (201T; first compound 0.02 µM) was 0.255 and the relative viability (RERF-LC-KJ; first compound 0.0002 µM) was 0.375. It also gave a relative viability (RERF-LC-KJ; first compound 0.000632 µM) of 0.342, a relative viability (RERF-LC-KJ; first compound 0.002 µM) of 0.297 and a relative viability (RERF-LC-KJ; first compound 0.006325 µM) of 0.173. For the same compound, the relative viability (RERF-LC-KJ; first compound 0.02 µM) was 0.157, the relative viability (BEN; first compound 0.0002 µM) was 0.68 and the relative viability (BEN; first compound 0.000632 µM) was 0.795. The relative viability (BEN; first compound 0.002 µM) was 0.442, the relative viability (BEN; first compound 0.006325 µM) was 0.449 and the relative viability (BEN; first compound 0.02 µM) was 0.325. It also gave a relative viability (CAL-12T; first compound 0.0002 µM) of 1.08, a relative viability (CAL-12T; first compound 0.000632 µM) of 0.83 and a relative viability (CAL-12T; first compound 0.002 µM) of 0.241. The relative viability (CAL-12T; first compound 0.006325 µM) was 0.272 and the relative viability (CAL-12T; first compound 0.02 µM) was 0.19.
